# From patent publication US20070292888A1, “Methods for Measuring Enzyme Activities in Cells, Blood, Tumors and Tissues” (GEN-PATH PHARMACEUTICALS, INC., priority 2004, published 2007)
# Molecular target: T1, alpha-ketoglutarate dehydrogenase (kGDH) (Mus musculus, UniProt Q60597)
# T1 construct: from tissue; host or cells: mouse brain, blood, tumor and other organs (crude lysates)
# T1 sequence (Q60597 41-1023): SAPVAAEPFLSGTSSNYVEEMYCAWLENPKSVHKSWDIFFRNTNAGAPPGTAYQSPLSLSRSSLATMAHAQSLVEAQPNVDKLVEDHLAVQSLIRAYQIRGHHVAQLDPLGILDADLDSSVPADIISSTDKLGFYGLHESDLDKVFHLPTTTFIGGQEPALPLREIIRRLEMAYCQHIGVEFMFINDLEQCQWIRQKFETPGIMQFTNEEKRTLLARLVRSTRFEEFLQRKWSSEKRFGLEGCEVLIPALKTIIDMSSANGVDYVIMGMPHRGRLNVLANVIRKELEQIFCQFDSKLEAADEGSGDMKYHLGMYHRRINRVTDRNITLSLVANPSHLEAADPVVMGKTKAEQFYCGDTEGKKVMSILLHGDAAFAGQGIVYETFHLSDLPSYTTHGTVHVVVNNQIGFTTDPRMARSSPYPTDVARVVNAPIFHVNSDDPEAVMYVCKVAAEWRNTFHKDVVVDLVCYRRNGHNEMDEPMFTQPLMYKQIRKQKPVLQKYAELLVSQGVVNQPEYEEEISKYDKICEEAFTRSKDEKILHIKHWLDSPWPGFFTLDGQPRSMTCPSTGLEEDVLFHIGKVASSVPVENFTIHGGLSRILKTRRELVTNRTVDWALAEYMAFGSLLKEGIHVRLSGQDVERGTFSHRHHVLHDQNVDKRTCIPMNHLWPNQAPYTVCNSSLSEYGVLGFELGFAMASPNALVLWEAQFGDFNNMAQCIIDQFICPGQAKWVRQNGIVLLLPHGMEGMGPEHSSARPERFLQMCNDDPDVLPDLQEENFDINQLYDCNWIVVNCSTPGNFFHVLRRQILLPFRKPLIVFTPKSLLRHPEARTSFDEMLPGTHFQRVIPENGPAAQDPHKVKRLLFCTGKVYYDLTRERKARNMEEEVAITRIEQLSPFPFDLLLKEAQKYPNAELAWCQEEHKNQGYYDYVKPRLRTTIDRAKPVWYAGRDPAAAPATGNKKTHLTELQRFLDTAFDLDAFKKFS
# T1 sequence (Q9D2G2 69-454 partner): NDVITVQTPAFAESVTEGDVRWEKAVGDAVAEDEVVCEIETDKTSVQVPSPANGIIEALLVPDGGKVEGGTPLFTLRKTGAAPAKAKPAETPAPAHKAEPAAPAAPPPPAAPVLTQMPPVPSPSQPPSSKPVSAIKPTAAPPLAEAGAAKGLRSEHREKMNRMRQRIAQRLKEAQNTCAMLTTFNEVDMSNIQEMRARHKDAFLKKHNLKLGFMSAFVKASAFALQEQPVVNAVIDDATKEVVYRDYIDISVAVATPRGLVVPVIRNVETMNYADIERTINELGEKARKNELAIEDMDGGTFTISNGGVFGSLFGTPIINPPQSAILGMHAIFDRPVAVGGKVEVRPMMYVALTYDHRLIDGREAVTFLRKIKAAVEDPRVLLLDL
# T1 sequence (O08749 36-509 partner): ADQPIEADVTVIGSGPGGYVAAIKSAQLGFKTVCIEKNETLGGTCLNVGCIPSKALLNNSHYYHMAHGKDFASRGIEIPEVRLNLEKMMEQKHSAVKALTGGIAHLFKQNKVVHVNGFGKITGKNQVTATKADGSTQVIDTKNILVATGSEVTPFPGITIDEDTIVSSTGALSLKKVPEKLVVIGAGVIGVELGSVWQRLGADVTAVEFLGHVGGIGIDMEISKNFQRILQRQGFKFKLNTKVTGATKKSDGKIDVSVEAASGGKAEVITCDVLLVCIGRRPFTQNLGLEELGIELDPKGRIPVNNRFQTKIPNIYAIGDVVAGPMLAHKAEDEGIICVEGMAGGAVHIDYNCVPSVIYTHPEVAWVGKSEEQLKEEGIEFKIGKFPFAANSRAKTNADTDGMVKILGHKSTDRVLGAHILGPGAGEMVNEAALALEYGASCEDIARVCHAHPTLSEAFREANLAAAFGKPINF
# Experiment: alpha-ketoglutarate dehydrogenase activity in tissues of treated mice (fluorescence NADH assay)
# Assay type: in vivo
# Experimental: Blood samples from mice were taken (40 μl whole blood) serially or from mice sacrificed at the end of the experiment. Tissues, such as tumors (e.g. from implantation, xenograft, or arising spontaneously), brain, heart, kidney, liver, lung and spleen were taken and flash frozen in liquid nitrogen or on dry ice and stored in −80° C. until time of assay. Four volumes of cold lysis buffer (20 mM HEPES, pH 7.5, 1 mM EDTA, 0.2 g/l Triton X-100® and 0.2 g/L sodium deoxycholate, supplemented with 1 mM DTT and 1 mM PMSF just before use) were added to the blood, which was dissolved by vortexing. For blood that was frozen before coagulation, a clear lysate was obtained. If coagulation occurred, homogenization was used as described below for tissue. Tissues were suspended in lysis buffer in 10 ml round bottom tubes and homogenized with PowerGen 125® (Fisher Scientific) for four seconds at highest power while submerged in an ice-water bath. This step was repeated after a few seconds, as necessary. […]
# Each reaction was monitored for the appearance of NADH (for transketolase, alpha-ketoglutarate dehydrogenase, pyruvate dehydrogenase) or NADPH (for glucose-6-phosphate dehydrogenase) at room temperature in a fluorescent plate reader with excitation at 340 nm and emission at 470 nm in kinetic mode. The velocity was determined by the slope of the initial linear range of increasing fluorescence, expressed in fluorescent units (FU)/min. The protein concentration in the lysate was determined using Bradford assays (BioRad) with BSA as a standard. […]
# To investigate the amount of in vivo enzyme inhibition following treatment with an inhibitor, we administered a single dose of N3PT (100 mg/kg, intraperitoneally [i.p.]) and blood, spleen and brain samples were collected at various times from 0-120 hours after dosing. The enzymatic activities were determined as described in Example 1. TK activity was measured in blood and spleen. Because TK activity in the brain is below the detection limit of the assay, kGDH activity was measured in brain samples. […]
smiles,measurement,setting,value
"Cc1ccc(C[n+]2csc(CCO)c2C)c(N)n1 [N3PT, 3-[(2-amino-6-methyl-3-pyridinyl)methyl]-5-(2-hydroxyethyl)-4-methyl thiazolium]",kGDH activity in blood,"11 days i.p. twice per day, blood",obliterated
same,brain penetration,"after a single dose 100 mg/kg i.p., inferred from brain kGDH activity",little or no significant brain penetration
same,inhibition of brain kGDH activity,"single dose 100 mg/kg i.p., 0-120 hours",No significant inhibition
